Laboratory results reported in US12643871B2, “Aryl formamide compound containing chiral sulfur oxide or salt thereof, preparation method, herbicidal composition and use thereof” (Qingdao Kingagroot Chemical Compound Co., Ltd., priority 2019, dated 2026).

Legend:
Amaranthus retroflexus = test: Weeding effect in post-emergence stage; format: in vivo; conditions: 250 g/ha; 2 leaf stage; 15 days after application; fresh weight control rate
Excerpt: (§1) The activity level criteria for harmful plant damage (i.e., growth control rate) are as follows: • Level 5: growth control rate is above 85%; • Level 4: growth control rate is greater than or equal to 60% and less than 85%; • Level 3: growth control rate is greater than or equal to 40% and less than 60%; • Level 2: growth control rate is greater than or equal to 20% and less than 40%; • Level 1: growth control rate is greater than or equal to 5% and less than 20%; • Level 0: growth control rate is less than 5%.
(§2) The above growth control rates are fresh weight control rates.
(§3) Experiment on weeding effect in post-emergence stage: monocotyledonous and dicotyledonous weed seeds (Descurainia sophia, Capsella bursa-pastoris, Galium aparine, Stellaria media, Lithospermum arvense, Rorippa indica, Alopecurus aequalis, Beckmannia syzigachne, Sclerochloa dura, Phleum paniculatum, Bromus japonicus, Aegilops tauschii, Phalaris arundinacea, Amaranthus retroflexus, Chenopodiaceae, Commelina communis, Sonchus arvensis, convolvulus arvensis, Cirsium setosum, Solanum nigrum, Acalypha australis, Digitaria sanguinalis, Echinochloa crusgalli, Setaria viridis, Setaria glauca, Leptochloa chinensis, Monochoria vaginalis, Sagittaria trifolia, Scirpus juncoides, Cyperus rotundus, Cyperus iria, Cyperus difformis, Fimbristylis, Portulaca oleracea, Xanthium sibiricum, Pharbitis nil) and major crop seeds (wheat, corn, rice, soybean, cotton, oilseed rape, millet, sorghum, potato, sesame, ricinus) were placed in plastic pots filled with soil, then covered with 0.5-2 cm of soil, allowed to grow in a good greenhouse environment. After 2 weeks of sowing, the test plants were treated in the 2 leaf stage. The tested compounds of the present invention were respectively dissolved in acetone, then added with Tween 80 and 1.5 liter/ha of emulsifiable concentrate of methyl oleate as synergist, diluted with a certain amount of water to obtain a solution with a certain concentration, and sprayed with a spray tower onto the plants. After the application, the plants were cultured for 15 days in the greenhouse, and then the experimental results of the weeding were counted. The doses of the used compounds were 500, 250, 125, 60, 30, 15 g/ha, and the averages were obtained by repeating for three times.

Echinochloa crusgali = test: Weeding effect in post-emergence stage; format: in vivo; conditions: 250 g/ha; 2 leaf stage; 15 days after application; fresh weight control rate
Excerpt: as §1, §2, §3

SMILES	weeding effect in post-emergence stage, activity level (growth control rate), Amaranthus retroflexus (Amaranthus retroflexus)	weeding effect in post-emergence stage, activity level (growth control rate), Echinochloa crusgali (Echinochloa crusgali)
Cc1nnc(NC(=O)c2ccc(C(F)(F)F)c([S@+]([O-])CCC(C)(C)C)c2F)o1 [Compound 13]	5 (Level 5: growth control rate is above 85%)	5 (Level 5: growth control rate is above 85%)
CCCCCCC[S@@+]([O-])c1c(C(F)(F)F)ccc(C(=O)Nc2nnc(C)o2)c1F [Compound 14]	5 (Level 5: growth control rate is above 85%)	5 (Level 5: growth control rate is above 85%)
Cc1nnc(NC(=O)c2ccc(C(F)(F)F)c([S@+]([O-])CCC3CCCCC3)c2F)o1 [Compound 18]	5 (Level 5: growth control rate is above 85%)	5 (Level 5: growth control rate is above 85%)
Cc1nnc(NC(=O)c2ccc(C(F)(F)F)c([S+]([O-])C#N)c2F)o1 (centres unmarked) [Compound 51]	5 (Level 5: growth control rate is above 85%)	5 (Level 5: growth control rate is above 85%)
Cc1nnc(NC(=O)c2ccc(C(F)(F)F)c([S@@+]([O-])C(=O)c3ccco3)c2F)o1 [Compound 171]	5 (Level 5: growth control rate is above 85%)	5 (Level 5: growth control rate is above 85%)
Cc1nnc(NC(=O)c2ccc(C(F)(F)F)c([S@@+]([O-])C(=O)N(C)C)c2F)o1 [Compound 176]	5 (Level 5: growth control rate is above 85%)	5 (Level 5: growth control rate is above 85%)
Cc1nnc(NC(=O)c2ccc(C(F)(F)F)c([S@+]([O-])CC(=O)N(C)C)c2F)o1 [Compound 178]	5 (Level 5: growth control rate is above 85%)	5 (Level 5: growth control rate is above 85%)
Cc1nnc(NC(=O)c2ccc(C(F)(F)F)c([S@+]([O-])CC=O)c2F)o1 [Compound 191]	5 (Level 5: growth control rate is above 85%)	5 (Level 5: growth control rate is above 85%)
Cc1nnc(NC(=O)c2ccc(C(F)(F)F)c([S@+]([O-])CCC=O)c2F)o1 [Compound 192]	5 (Level 5: growth control rate is above 85%)	5 (Level 5: growth control rate is above 85%)
CC(=O)C[S@@+]([O-])c1c(C(F)(F)F)ccc(C(=O)Nc2nnc(C)o2)c1F [Compound 193]	5 (Level 5: growth control rate is above 85%)	5 (Level 5: growth control rate is above 85%)
COC(=O)C[S@@+]([O-])c1c(C(F)(F)F)ccc(C(=O)Nc2nnc(C)o2)c1F [Compound 196]	5 (Level 5: growth control rate is above 85%)	5 (Level 5: growth control rate is above 85%)
Cc1nnc(NC(=O)c2ccc(C(F)(F)F)c([S@+]([O-])CC(=O)OC(C)(C)C)c2F)o1 [Compound 199]	5 (Level 5: growth control rate is above 85%)	5 (Level 5: growth control rate is above 85%)
Cc1nnc(NC(=O)c2ccc(C(F)(F)F)c([S@@+]([O-])COC(=O)C(C)(C)C)c2F)o1 [Compound 202]	5 (Level 5: growth control rate is above 85%)	5 (Level 5: growth control rate is above 85%)
Cc1nnc(NC(=O)c2ccc(C(F)(F)F)c([S+]([O-])[Si](C)(C)C)c2F)o1 (centres unmarked) [Compound 206]	5 (Level 5: growth control rate is above 85%)	5 (Level 5: growth control rate is above 85%)
C#CCN(C(=O)c1ccc(C(F)(F)F)c([S@+]([O-])CC)c1F)c1nnc(C)o1 [Compound 214]	5 (Level 5: growth control rate is above 85%)	5 (Level 5: growth control rate is above 85%)
CC[S@@+]([O-])c1c(C(F)(F)F)ccc(C(=O)N(C(C)=O)c2nnc(C)o2)c1F [Compound 216]	5 (Level 5: growth control rate is above 85%)	5 (Level 5: growth control rate is above 85%)
CC[S@@+]([O-])c1c(C(F)(F)F)ccc(C(=O)N(C(=O)c2cn(C)nc2C)c2nnc(C)o2)c1F [Compound 223]	5 (Level 5: growth control rate is above 85%)	5 (Level 5: growth control rate is above 85%)
CC[S@@+]([O-])c1c(C(F)(F)F)ccc(C(=O)N(C(=O)OC)c2nnc(C)o2)c1F [Compound 231]	5 (Level 5: growth control rate is above 85%)	5 (Level 5: growth control rate is above 85%)
COc1c(C(=O)Nc2nnc(C)o2)ccc(C(F)(F)F)c1[S@+]([O-])CCc1ccccc1 [Compound 318]	5 (Level 5: growth control rate is above 85%)	5 (Level 5: growth control rate is above 85%)
COc1c(C(=O)Nc2nnc(C)o2)ccc(C(F)(F)F)c1[S@+]([O-])CCO[Si](C)(C)C(C)(C)C [Compound 349]	5 (Level 5: growth control rate is above 85%)	5 (Level 5: growth control rate is above 85%)
COc1c(C(=O)Nc2nnc(C)o2)ccc(C(F)(F)F)c1[S@+]([O-])CC(C)=O [Compound 351]	5 (Level 5: growth control rate is above 85%)	5 (Level 5: growth control rate is above 85%)
COC(=O)CC[S@@+]([O-])c1c(C(F)(F)F)ccc(C(=O)Nc2nnc(C)o2)c1OC [Compound 354]	5 (Level 5: growth control rate is above 85%)	5 (Level 5: growth control rate is above 85%)
COc1c(C(=O)Nc2nnc(C)o2)ccc(C(F)(F)F)c1[S+]([O-])COC(=O)C(C)(C)C (centres unmarked) [Compound 355]	5 (Level 5: growth control rate is above 85%)	5 (Level 5: growth control rate is above 85%)
COc1c(C(=O)Nc2nnc(C)o2)ccc(C(F)(F)F)c1[S@+]([O-])Cc1cn(C)nc1C [Compound 356]	5 (Level 5: growth control rate is above 85%)	5 (Level 5: growth control rate is above 85%)
CCCn1nnnc1NC(=O)c1ccc(C(F)(F)F)c([S@+]([O-])CCC)c1F [Compound 383]	5 (Level 5: growth control rate is above 85%)	5 (Level 5: growth control rate is above 85%)
CC[S@@+]([O-])c1c(C(F)(F)F)ccc(C(=O)Nc2nnc(C(C)C)o2)c1OC [Compound 425]	5 (Level 5: growth control rate is above 85%)	5 (Level 5: growth control rate is above 85%)
CC[S@@+]([O-])c1c(C(F)(F)F)ccc(C(=O)Nc2nnc(C3CC3)o2)c1OC [Compound 428]	5 (Level 5: growth control rate is above 85%)	5 (Level 5: growth control rate is above 85%)
CCCCn1nnnc1NC(=O)c1ccc(C(F)(F)F)c([S@+]([O-])CC)c1OC [Compound 448]	5 (Level 5: growth control rate is above 85%)	5 (Level 5: growth control rate is above 85%)
